Measurements as given in ChEMBL document CHEMBL1145498, “A systematic interaction map of validated kinase inhibitors with Ser/Thr kinases” (Proc Natl Acad Sci U S A, 2007).

Columns and labels:
[1] = molecular target: T1, Myotonin-protein kinase (Homo sapiens) (UniProt Q09013)
T1 sequence (whole entry): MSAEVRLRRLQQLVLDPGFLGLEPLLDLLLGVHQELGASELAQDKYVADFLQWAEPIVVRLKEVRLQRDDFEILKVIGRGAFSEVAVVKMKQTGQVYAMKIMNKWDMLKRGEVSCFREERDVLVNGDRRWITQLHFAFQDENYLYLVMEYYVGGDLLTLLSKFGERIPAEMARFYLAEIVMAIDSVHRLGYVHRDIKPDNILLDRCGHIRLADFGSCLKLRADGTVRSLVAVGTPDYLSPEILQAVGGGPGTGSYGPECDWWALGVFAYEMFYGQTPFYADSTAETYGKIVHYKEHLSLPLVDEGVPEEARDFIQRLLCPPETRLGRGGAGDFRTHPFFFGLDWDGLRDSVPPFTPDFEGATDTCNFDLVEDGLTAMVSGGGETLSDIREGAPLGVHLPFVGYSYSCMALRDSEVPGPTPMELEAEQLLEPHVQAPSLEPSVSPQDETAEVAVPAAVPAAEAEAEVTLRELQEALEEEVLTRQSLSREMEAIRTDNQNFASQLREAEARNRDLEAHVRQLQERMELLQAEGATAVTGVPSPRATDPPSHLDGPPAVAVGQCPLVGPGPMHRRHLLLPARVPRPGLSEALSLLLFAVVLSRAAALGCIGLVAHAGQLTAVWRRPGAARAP

[2] = molecular target: T2, Calcium/calmodulin-dependent protein kinase type IV (Homo sapiens) (UniProt Q16566)
T2 sequence (whole entry): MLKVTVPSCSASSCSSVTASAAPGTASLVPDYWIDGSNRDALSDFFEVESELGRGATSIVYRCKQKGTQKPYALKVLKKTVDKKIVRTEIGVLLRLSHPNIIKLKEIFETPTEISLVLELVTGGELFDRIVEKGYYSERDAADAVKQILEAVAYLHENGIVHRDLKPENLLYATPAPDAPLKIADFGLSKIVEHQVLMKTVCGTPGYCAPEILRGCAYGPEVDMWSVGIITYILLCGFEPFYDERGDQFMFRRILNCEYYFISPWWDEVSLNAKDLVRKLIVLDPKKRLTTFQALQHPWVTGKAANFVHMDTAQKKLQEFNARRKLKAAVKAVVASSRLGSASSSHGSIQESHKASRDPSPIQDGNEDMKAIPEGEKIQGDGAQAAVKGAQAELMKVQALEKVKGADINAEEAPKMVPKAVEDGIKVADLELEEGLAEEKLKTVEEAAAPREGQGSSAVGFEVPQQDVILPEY

[3] = molecular target: Calcium/calmodulin-dependent protein kinase type II subunit beta (Homo sapiens) (UniProt Q13554)
Sequence of Calcium/calmodulin-dependent protein kinase type II subunit beta (Homo sapiens) (Q13554 whole entry): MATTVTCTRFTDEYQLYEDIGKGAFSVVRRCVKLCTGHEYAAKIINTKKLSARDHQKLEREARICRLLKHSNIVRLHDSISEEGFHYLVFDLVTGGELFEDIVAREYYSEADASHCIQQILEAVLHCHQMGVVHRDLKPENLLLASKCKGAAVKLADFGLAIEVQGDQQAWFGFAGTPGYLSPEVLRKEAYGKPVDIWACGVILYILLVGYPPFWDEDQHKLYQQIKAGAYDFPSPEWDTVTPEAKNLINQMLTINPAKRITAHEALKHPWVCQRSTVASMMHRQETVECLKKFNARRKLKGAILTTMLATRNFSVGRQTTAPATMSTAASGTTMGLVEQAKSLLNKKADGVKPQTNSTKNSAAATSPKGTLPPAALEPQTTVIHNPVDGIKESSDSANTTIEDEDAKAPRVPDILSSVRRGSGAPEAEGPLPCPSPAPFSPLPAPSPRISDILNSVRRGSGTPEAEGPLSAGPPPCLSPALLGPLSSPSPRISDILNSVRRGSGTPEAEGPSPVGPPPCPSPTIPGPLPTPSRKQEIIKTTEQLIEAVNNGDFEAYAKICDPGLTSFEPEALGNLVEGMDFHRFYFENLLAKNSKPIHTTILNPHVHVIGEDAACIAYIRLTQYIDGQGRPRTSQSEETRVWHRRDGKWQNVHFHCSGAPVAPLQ

[4] = molecular target: Dual specificity protein kinase CLK1 (Homo sapiens) (UniProt P49759)
Sequence of Dual specificity protein kinase CLK1 (Homo sapiens) (P49759 whole entry, looked up): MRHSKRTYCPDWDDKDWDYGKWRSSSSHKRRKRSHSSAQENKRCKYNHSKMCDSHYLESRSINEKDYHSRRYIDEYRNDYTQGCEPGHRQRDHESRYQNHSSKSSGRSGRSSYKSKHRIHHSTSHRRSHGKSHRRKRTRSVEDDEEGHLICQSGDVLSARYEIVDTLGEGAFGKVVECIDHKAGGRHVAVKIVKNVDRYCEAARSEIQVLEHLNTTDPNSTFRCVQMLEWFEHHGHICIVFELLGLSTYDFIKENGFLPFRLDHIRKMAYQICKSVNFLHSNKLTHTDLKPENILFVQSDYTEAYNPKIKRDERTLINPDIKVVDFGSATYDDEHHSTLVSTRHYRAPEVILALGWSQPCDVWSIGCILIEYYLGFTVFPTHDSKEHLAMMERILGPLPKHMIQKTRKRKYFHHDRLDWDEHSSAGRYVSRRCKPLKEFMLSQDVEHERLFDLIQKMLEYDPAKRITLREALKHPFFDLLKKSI

[5] = molecular target: Cyclin-dependent kinase-like 1 (Homo sapiens) (UniProt Q00532)
Sequence of Cyclin-dependent kinase-like 1 (Homo sapiens) (Q00532 whole entry): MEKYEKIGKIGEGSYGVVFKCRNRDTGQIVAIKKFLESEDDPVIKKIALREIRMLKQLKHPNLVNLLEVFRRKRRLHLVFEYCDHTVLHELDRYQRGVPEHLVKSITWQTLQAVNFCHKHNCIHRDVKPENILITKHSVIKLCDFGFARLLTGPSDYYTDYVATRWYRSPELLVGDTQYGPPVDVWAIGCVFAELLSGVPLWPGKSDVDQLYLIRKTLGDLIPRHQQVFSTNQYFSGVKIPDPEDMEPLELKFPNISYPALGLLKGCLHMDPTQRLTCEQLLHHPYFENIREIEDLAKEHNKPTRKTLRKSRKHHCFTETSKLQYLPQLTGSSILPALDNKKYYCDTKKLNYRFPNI

[6] = molecular target: Mitogen-activated protein kinase 3 (Homo sapiens, UniProt P27361)
Sequence of Mitogen-activated protein kinase 3 (P27361 whole entry): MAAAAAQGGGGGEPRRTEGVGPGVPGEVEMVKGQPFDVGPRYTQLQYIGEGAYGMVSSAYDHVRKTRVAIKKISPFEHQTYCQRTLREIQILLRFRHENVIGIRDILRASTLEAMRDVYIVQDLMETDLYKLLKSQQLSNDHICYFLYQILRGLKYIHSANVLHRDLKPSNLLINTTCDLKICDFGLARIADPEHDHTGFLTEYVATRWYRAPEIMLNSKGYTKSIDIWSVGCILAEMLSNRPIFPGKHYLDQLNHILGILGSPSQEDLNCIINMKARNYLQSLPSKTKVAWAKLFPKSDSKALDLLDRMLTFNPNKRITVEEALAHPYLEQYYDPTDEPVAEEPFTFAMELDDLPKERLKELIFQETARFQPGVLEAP

[7] = molecular target: Death-associated protein kinase 3 (Homo sapiens) (UniProt O43293)
Sequence of Death-associated protein kinase 3 (Homo sapiens) (O43293 whole entry, looked up): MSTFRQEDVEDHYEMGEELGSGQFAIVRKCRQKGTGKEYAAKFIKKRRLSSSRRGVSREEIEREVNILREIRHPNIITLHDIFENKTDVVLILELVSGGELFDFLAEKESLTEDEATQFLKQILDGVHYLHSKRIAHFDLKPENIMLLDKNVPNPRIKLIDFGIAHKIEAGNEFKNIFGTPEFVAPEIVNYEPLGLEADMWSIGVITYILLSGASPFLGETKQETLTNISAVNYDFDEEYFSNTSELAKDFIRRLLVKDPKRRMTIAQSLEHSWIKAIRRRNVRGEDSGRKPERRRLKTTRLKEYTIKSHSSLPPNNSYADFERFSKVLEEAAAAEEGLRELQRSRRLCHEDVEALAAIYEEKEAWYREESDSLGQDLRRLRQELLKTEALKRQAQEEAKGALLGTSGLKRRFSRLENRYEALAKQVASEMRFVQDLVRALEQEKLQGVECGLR

[8] = molecular target: Serine/threonine-protein kinase Chk2 (Homo sapiens, UniProt O96017)
Sequence of Serine/threonine-protein kinase Chk2 (O96017 whole entry): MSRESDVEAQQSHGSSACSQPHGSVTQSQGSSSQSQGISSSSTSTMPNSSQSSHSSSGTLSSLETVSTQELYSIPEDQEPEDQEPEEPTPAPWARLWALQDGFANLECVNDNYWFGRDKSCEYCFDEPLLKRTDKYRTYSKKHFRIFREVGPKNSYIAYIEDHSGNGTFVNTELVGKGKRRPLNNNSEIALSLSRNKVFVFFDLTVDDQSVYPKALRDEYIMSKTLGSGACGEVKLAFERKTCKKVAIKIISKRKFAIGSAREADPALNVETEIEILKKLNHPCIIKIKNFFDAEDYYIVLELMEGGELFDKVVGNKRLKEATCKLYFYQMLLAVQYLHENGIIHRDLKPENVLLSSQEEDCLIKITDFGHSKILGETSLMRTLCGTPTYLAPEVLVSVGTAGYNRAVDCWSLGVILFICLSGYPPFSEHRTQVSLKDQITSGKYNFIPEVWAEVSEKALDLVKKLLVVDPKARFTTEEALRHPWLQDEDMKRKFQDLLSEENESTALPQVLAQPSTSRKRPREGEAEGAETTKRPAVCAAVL

[9] = molecular target: Epidermal growth factor receptor (Homo sapiens, UniProt P00533)
[10] = molecular target: T3, Serine/threonine-protein kinase VRK1 (Homo sapiens) (UniProt Q99986)
T3 sequence (whole entry): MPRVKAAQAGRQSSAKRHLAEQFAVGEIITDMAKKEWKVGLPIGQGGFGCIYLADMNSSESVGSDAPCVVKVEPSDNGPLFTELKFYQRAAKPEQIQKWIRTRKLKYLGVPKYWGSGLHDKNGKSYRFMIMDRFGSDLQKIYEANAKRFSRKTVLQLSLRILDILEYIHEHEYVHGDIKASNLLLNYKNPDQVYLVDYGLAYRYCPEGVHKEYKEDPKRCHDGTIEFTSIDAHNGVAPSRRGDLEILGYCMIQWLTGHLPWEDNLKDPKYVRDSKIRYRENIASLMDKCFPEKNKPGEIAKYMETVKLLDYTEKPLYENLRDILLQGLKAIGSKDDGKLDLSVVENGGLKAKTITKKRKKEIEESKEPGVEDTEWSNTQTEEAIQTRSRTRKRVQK

[11] = molecular target: Serine/threonine-protein kinase 26 (Homo sapiens) (UniProt Q9P289)
[12] = molecular target: 5'-AMP-activated protein kinase catalytic subunit alpha-2 (Homo sapiens) (UniProt P54646)
Sequence of 5'-AMP-activated protein kinase catalytic subunit alpha-2 (Homo sapiens) (P54646 whole entry, looked up): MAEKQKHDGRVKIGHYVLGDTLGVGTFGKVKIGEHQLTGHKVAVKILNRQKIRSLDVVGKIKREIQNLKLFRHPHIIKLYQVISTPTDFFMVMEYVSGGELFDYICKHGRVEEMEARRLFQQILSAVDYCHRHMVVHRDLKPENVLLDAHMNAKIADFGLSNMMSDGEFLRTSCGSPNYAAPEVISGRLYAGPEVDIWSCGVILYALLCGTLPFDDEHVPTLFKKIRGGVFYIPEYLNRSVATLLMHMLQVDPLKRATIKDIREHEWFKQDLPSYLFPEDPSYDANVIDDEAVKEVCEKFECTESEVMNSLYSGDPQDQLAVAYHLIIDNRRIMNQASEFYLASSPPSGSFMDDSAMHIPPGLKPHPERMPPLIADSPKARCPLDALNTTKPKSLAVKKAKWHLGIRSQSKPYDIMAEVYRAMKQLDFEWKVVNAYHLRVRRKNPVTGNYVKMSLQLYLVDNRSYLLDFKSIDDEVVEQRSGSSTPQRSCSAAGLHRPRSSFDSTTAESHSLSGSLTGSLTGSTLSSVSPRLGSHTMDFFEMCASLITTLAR

[13] = molecular target: Serine/threonine-protein kinase PLK1 (Homo sapiens) (UniProt P53350)
[14] = molecular target: cAMP-dependent protein kinase catalytic subunit alpha (Homo sapiens) (UniProt P17612)
[15] = molecular target: Cyclin-dependent kinase 6 (Homo sapiens) (UniProt Q00534)
Sequence of Cyclin-dependent kinase 6 (Homo sapiens) (Q00534 whole entry): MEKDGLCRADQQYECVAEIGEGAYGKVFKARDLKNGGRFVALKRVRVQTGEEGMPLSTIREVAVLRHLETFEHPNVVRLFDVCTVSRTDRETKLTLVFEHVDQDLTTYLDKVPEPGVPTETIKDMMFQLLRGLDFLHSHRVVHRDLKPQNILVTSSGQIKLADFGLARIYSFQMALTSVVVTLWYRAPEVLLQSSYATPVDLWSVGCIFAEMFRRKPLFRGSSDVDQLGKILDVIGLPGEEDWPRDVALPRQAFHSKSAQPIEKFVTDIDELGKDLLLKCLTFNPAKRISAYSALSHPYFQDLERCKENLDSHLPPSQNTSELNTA

[16] = molecular target: Ribosomal protein S6 kinase alpha-3 (Homo sapiens) (UniProt P51812)
[17] = molecular target: Tyrosine-protein kinase JAK1 (Homo sapiens) (UniProt P23458)
[18] = molecular target: Dual specificity protein kinase CLK2 (Homo sapiens) (UniProt P49760)
Sequence of Dual specificity protein kinase CLK2 (Homo sapiens) (P49760 whole entry, looked up): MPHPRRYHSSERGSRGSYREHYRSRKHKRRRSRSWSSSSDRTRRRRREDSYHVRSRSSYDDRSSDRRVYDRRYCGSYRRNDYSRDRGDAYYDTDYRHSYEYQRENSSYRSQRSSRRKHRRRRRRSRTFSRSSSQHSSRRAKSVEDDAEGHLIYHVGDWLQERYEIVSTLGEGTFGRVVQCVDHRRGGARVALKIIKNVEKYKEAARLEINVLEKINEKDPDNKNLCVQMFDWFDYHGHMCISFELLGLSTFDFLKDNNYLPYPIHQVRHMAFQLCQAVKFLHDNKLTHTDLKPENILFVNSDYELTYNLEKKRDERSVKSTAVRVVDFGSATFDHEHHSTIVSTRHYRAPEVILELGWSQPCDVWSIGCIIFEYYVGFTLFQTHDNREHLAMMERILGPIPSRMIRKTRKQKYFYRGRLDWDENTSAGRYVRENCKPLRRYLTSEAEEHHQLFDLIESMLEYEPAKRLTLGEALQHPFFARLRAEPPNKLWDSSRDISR

[19] = molecular target: Serine/threonine-protein kinase 16 (Homo sapiens) (UniProt O75716)
Sequence of Serine/threonine-protein kinase 16 (Homo sapiens) (O75716 whole entry): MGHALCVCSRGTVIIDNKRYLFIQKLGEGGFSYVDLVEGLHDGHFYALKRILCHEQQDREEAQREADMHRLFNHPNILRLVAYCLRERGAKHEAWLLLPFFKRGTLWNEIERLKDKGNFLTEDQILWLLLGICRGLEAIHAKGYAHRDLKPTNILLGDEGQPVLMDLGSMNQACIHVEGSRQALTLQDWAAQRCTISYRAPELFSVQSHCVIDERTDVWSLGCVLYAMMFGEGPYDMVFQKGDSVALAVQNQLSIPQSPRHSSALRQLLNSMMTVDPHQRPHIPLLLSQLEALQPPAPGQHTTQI

[20] = molecular target: Myosin light chain kinase, smooth muscle (Homo sapiens, UniProt Q15746); experiment: Binding affinity at MLCK
[21] = Binding affinity at PKC
[22] = molecular target: Proto-oncogene tyrosine-protein kinase Src (Homo sapiens, UniProt P12931); experiment: Inhibition of Src; conditions: read-out: IC50
[23] = Inhibition of Cdk2/cyclin B

Row | Structure (SMILES) | ΔTm [1] | ΔTm [2] | ΔTm [3] | ΔTm [4] | ΔTm [5] | ΔTm [6] | ΔTm [7] | ΔTm [8] | ΔTm [10] | ΔTm [11] | ΔTm [12] | ΔTm [13] | ΔTm [14] | ΔTm [15] | ΔTm [16] | ΔTm [17] | ΔTm [18] | ΔTm [19] | also measured
1 | O=c1ccc2ccc(O)c(O)c2o1 [DAPHNETIN] | -0.6 °C | -0.1 °C | 0.1 °C | 0 °C | 0.3 °C | 0.3 °C | -0.6 °C | -0.1 °C | 0 °C | -0.2 °C | -0.1 °C | -0.1 °C | 0.6 °C | -0.3 °C | 0.1 °C | 0.2 °C | 0.1 °C | 0.1 °C | IC50 [9]: 7.67 µM
2 | O=S(=O)(NCCNC/C=C/c1ccc(Br)cc1)c1cccc2cnccc12 | -0.6 °C | 0.4 °C | -0.2 °C | 1.1 °C | -0.1 °C | -0.3 °C | 3.8 °C | 2.6 °C | -0.3 °C | 0.9 °C | 0.9 °C | 1 °C | 6.9 °C | -0.4 °C | 0.6 °C | -0.3 °C | 0.7 °C | 0.5 °C | Ki [20]: 28.3 µM; Ki [21]: 31.7 µM
3 | CC(C)(C)c1cc(C=C2C(=O)C=CC2=O)cc(C(C)(C)C)c1O | 1.4 °C | -1.5 °C | -0.3 °C | 0 °C | -5.5 °C | 0.1 °C | -0.4 °C | 1.8 °C | -0.6 °C | 0 °C | -0.1 °C | 1.1 °C | 0.8 °C | -6.6 °C | -5 °C | -7.9 °C | 0.4 °C | 0.2 °C | IC50 [22]: 2.2 µM
4 | O=c1cc(-c2ccc(O)cc2)oc2cc(O)cc(O)c12 | 0.6 °C | 2.1 °C | 0.5 °C | 3.9 °C | 1.4 °C | 0.5 °C | 3.5 °C | 2.7 °C | 0.2 °C | 2.1 °C | 1.5 °C | 2 °C | 1.7 °C | 0.4 °C | 2.4 °C | 4.6 °C | 2.8 °C | 4.8 °C | 
5 | Nc1cc2ncnc(Nc3cccc(Br)c3)c2cc1N | 0.1 °C | 0.4 °C | -0.4 °C | 2.2 °C | 0.8 °C | 0.4 °C | 2.1 °C | 1.8 °C | -0.3 °C | 4.2 °C | -0.9 °C | -1.4 °C | 1 °C | 0.8 °C | 0.5 °C | 2.2 °C | 1.6 °C | 0.1 °C | 
6 | COC(=O)[C@]1(O)C[C@@H]2O[C@@]1(C)n1c3ccccc3c3c4c(c5c6ccccc6n2c5c31)C(=O)NC4 (single isomer, unassigned) | 3.9 °C | 1.8 °C | 2.7 °C | 10.6 °C | 6.9 °C | 2 °C | 4.6 °C | 6 °C | 0.2 °C | 1.6 °C | 7.6 °C | 2.6 °C | 7.1 °C | 3.1 °C | 5.1 °C | 0.8 °C | 4.8 °C | 2.3 °C | 
7 | O=C(O)/C=C/c1cc(CO)ccc1CO | -0.1 °C | 0.5 °C | 0.4 °C | 0.2 °C | -0.1 °C | 0.2 °C | 0.8 °C | 0.6 °C | 0.4 °C | 0.2 °C | 0.7 °C | 0.3 °C | 0.4 °C | 0.3 °C | 0.3 °C | 0.8 °C | 0.6 °C | 0.3 °C | 
8 | NC1=NC(=O)/C(=C2\CCNC(=O)c3[nH]c(Br)cc32)N1 [HYMENIALDISINE] | 2.1 °C | 0.1 °C | 0.4 °C | 9.2 °C | 0.6 °C | 0.9 °C | 7.6 °C | 8.2 °C | 2 °C | 1.8 °C | 1 °C | 5.8 °C | 0.8 °C | 1.1 °C | 6.3 °C | 0.2 °C | 5.6 °C | 1.5 °C | IC50 [23]: 0.04 µM
9 | CC(C)c1cc(/C=C(\C#N)C(=O)NCCCc2ccccc2)cc(C(C)C)c1O | 1 °C | 1.2 °C | 1.5 °C | 2.8 °C | 1.2 °C | -0.1 °C | 0.7 °C | -0.1 °C | 1 °C | 2.5 °C | -0.8 °C | 0.4 °C | 0.5 °C | 0.3 °C | 0.2 °C | 0.1 °C | 1.3 °C | 0.5 °C | 
10 | Nc1nc(Nc2ccc(S(N)(=O)=O)cc2)nn1C(=S)Nc1c(F)cccc1F | 7 °C | -0.2 °C | 1.6 °C | 11.5 °C | 4.3 °C | 3.6 °C | 3 °C | 8.6 °C | 1.9 °C | 8.3 °C | 10.1 °C | 4.3 °C | 4.1 °C | 4.6 °C | 9.6 °C | 10.4 °C | 8.9 °C | 7.8 °C | 
11 | Cn1cc(/C=C2/C(=O)Nc3ccc(S(N)(=O)=O)cc32)c2ccccc21 | 3.7 °C | 1.1 °C | 0.1 °C | 4.7 °C | 0.2 °C | 1.2 °C | 0.3 °C | 10.6 °C | 1.6 °C | -0.2 °C | 8.3 °C | -0.7 °C | 0.9 °C | -0.2 °C | 4.8 °C | 4.3 °C | 3.6 °C | 1.7 °C | 
12 | Cn1cc(C2=C(c3cn(CCCN)c4ccccc34)C(=O)NC2=O)c2ccccc21 | 6.9 °C | 1.7 °C | 1.7 °C | 8.2 °C | 2.7 °C | -0.3 °C | 2.5 °C | 5.9 °C | 0.9 °C | -0.2 °C | 1.4 °C | 0.2 °C | 2.6 °C | 1.3 °C | 1.9 °C | -0.5 °C | 5.6 °C | 4.3 °C | 
